Results from PubChem BioAssay AID2060511 (Molecular Pharmacology Branch, DTP, NCI, 2025).
Where “and” joins values, the source holds several entries; their conditions need not be identical. Identical values can stand only once.

Test system: 422866-222-R5-J1-PDC spheroids with HUVEC/MSC, viability
Experiment: Anticancer human tumor 422866-222-R5-J1-PDC patient-derived pancreatic adenocarcinoma cell line growth inhibition [GQUAD]
Settings: for viability, T/C: stronger effect = lower value
Description: DNA G-quadruplex Stabilizer Agents in Combinations in Complex Spheroids
A high-throughput screen of multi-cell type tumor spheroids was designed to identify active combinations of DNA G-quadruplex stabilizer agents and targeted small molecules. Complex spheroids include a stromal component modeled by human endothelial cells (HUVEC) and fibroblasts modeled by human mesenchymal stem cells (MSCs). The concentration ranges selected for each drug and investigational agent were based upon clinically achievable concentrations if the clinical Cmax of the agent was known.
Compounds. The drugs and investigational agents: pidnarulex (CX-5461; NSC782164), APTO-253 (NSC789042), BRACO-19 (NSC847499), peposertib (NSC802822), ceralasertib (NSC780249), elimusertib (NSC800525), camonsertib (NSC841442), AZD-1390 (NSC803789), olaparib (NSC753686), talazoparib (NSC767125), ART-558 (NSC835418), sotorasib (NSC818433), MRTX-1133 (NSC836407), SN-38 (NSC673596), topotecan (NSC609699), etoposide (NSC141540), doxorubicin (NSC123127), gemcitabine (NSC613327), 5-fluorouracil (NSC19893), paclitaxel (NSC125973), vemurafenib (NSC761431), panobinostat (NSC761190), R-306465 (JNJ-16241199; NSC773264), adavosertib (NSC754352), TP-3654 (NSC805149), carboplatin (NSC241240), KSQ-4279 (NSC840948), and staurosporine (NSC755774) were obtained from the National Cancer Institute (NCI) Developmental Therapeutics Program Chemical Repository (34). The FDA-approved anticancer drug set is available from the NCI Developmental Therapeutics Program. […] The stock solutions were prepared in dimethyl sulfoxide (DMSO, Sigma-Aldrich, St. Louis, MO, cat. D2650) at 800-fold the tested concentration and stored at -70 degrees C prior to their use. All drugs and investigational agents were tested over a range starting from a high concentration at or near the clinical Cmax and decreasing in half-log increments. If the clinical Cmax for an agent had not been determined, the highest concentration tested was 10 microM.
2.3 Cell Culture. All cells were maintained in an incubator at 37 degrees C and 5% CO2 with 95% humidity. The PDC lines were cultured according to standard operating procedures established by the NCI PDMR. All PDCs were thawed and cultured in Matrigel-coated flasks prepared with a working solution of 1X Ham's F-12 nutrient mix, without supplementation (Invitrogen, cat. 11765054), 100 U/mL penicillin-streptomycin (Invitrogen, cat. 15140122), and 2.5% Matrigel (Corning Inc., cat. 354248) for the first three passages. The 857933-349-R-J2-PDC line was cultured in 6C/Colon 1B media, which includes advanced DMEM/F-12 (Thermo Fisher Scientific, cat. 12634028), 10 mM HEPES (Thermo Fisher Scientific, cat. 15630080), 1X GlutaMAX supplement (Thermo Fisher Scientific, cat. 35050061), 0.1 mg/mL primocin (InvivoGen, cat. ant-pm-2), 10% defined fetal bovine serum, heat inactivated (HyClone Laboratories Inc., cat. SH30070.03HI), 50% L-WRN conditioned media (ATCC, cat. CRL-3276), 1.25 mM N-Acetyl-L-cysteine (Sigma-Aldrich, cat. A9165), 10 mM nicotinamide (Sigma-Aldrich, cat. N0636), 1X B-27 supplement (Thermo Fisher Scientific, cat. 17504044), 1X N-2 supplement (Thermo Fisher Scientific, cat. 17502048), 10 microM Y-27632 dihydrochloride (Tocris Bioscience, cat. 1254), and 50 ng/mL human EGF recombinant protein (Thermo Fisher Scientific, cat. PHG0311). The 485176-168-R4-J1-PDC line was cultured in Panc media, which includes all 6C/Colon 1B media components plus 100 ng/mL human FGF-10 (Thermo Fisher Scientific, cat. 100-26), 500 nM SB-431542 (Selleckchem, cat. S1067), and gastrin (Tocris, cat. 3006).
[…]
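Note: spheroids exposed to compounds for seven days before reading.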
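Throughout, for viability, T/C: percent viability relative to DMSO vehicle control taken as 100%.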

## COc1ncnc(C2CC2)c1-c1ncc2cnn(Cc3ccc(-c4nc(C(F)(F)F)cn4C(C)C)cc3)c2n1
Compound 0.0316 µM
  viability, T/C: 91.6% and 95% and 118%
Compound 0.1 µM
  viability, T/C: 94% and 105% and 97%
Compound 0.316 µM
  viability, T/C: 92.3% and 121% and 97.5%
Compound 1 µM
  viability, T/C: 79.7% and 102% and 98.1%
Compound 3.16 µM
  viability, T/C: 97% and 60.6% and 99.1%
Compound 10 µM
  viability, T/C: 117% and 43.5% and 105%
Curve of compound
  IC50: > 10 µM and 6.45 µM

## Cc1[nH]c2ccccc2c1CCNCc1ccc(/C=C/C(=O)NO)cc1
Compound 0.000999 µM
  viability, T/C: 94.9% and 82.3% and 89.6%
Compound 0.00316 µM
  viability, T/C: 90.6% and 106% and 89.9%
Compound 0.00999 µM
  viability, T/C: 110% and 121% and 100%
Compound 0.0316 µM
  viability, T/C: 95.7% and 94.4% and 76.5%
Compound 0.0999 µM
  viability, T/C: 88.5% and 62.9% and 66.2%
Compound 0.316 µM
  viability, T/C: 86.2% and 55.7% and 46.1%
Curve of compound
  IC50: > 0.316 µM and 0.254 µM

## O=C(NO)c1cnc(N2CCN(S(=O)(=O)c3ccc4ccccc4c3)CC2)nc1 + Cc1[nH]c2ccc(F)cc2c1-c1nc2c3cccnc3c3ncccc3c2[nH]1
Curve of first compound, second compound 0.0316 µM
  IC50: > 10 µM
Curve of first compound, second compound 0.1 µM
  IC50: > 10 µM
Curve of first compound, second compound 0.316 µM
  IC50: > 10 µM
Curve of first compound, second compound 1 µM
  IC50: > 10 µM
Curve of first compound, second compound 3.16 µM
  IC50: > 10 µM
Curve of first compound, second compound 10 µM
  IC50: > 10 µM
Second compound 0.0316 µM, first compound 0.0316 µM
  viability, T/C: 78.6%
Second compound 0.0316 µM, first compound 0.1 µM
  viability, T/C: 69.2%
Second compound 0.0316 µM, first compound 0.316 µM
  viability, T/C: 64.7%
Second compound 0.0316 µM, first compound 1 µM
  viability, T/C: 68.1%
Second compound 0.0316 µM, first compound 3.16 µM
  viability, T/C: 71.6%
Second compound 0.0316 µM, first compound 10 µM
  viability, T/C: 75.4%
Second compound 0.1 µM, first compound 0.0316 µM
  viability, T/C: 81.1%
Second compound 0.1 µM, first compound 0.1 µM
  viability, T/C: 68.3%
Second compound 0.1 µM, first compound 0.316 µM
  viability, T/C: 56.4%
Second compound 0.1 µM, first compound 1 µM
  viability, T/C: 61%
Second compound 0.1 µM, first compound 3.16 µM
  viability, T/C: 74.2%
Second compound 0.1 µM, first compound 10 µM
  viability, T/C: 72.3%
Second compound 0.316 µM, first compound 0.0316 µM
  viability, T/C: 77.5%
Second compound 0.316 µM, first compound 0.1 µM
  viability, T/C: 68%
Second compound 0.316 µM, first compound 0.316 µM
  viability, T/C: 71.4%
Second compound 0.316 µM, first compound 1 µM
  viability, T/C: 61.7%
Second compound 0.316 µM, first compound 3.16 µM
  viability, T/C: 63.2%
Second compound 0.316 µM, first compound 10 µM
  viability, T/C: 78.1%
Second compound 1 µM, first compound 0.0316 µM
  viability, T/C: 64.4%
Second compound 1 µM, first compound 0.1 µM
  viability, T/C: 61.6%
Second compound 1 µM, first compound 0.316 µM
  viability, T/C: 62.6%
Second compound 1 µM, first compound 1 µM
  viability, T/C: 61.2%
Second compound 1 µM, first compound 3.16 µM
  viability, T/C: 75%
Second compound 1 µM, first compound 10 µM
  viability, T/C: 70%
Second compound 3.16 µM, first compound 0.0316 µM
  viability, T/C: 56%
Second compound 3.16 µM, first compound 0.1 µM
  viability, T/C: 56.6%
Second compound 3.16 µM, first compound 0.316 µM
  viability, T/C: 51.6%
Second compound 3.16 µM, first compound 1 µM
  viability, T/C: 63.3%
Second compound 3.16 µM, first compound 3.16 µM
  viability, T/C: 67.8%
Second compound 3.16 µM, first compound 10 µM
  viability, T/C: 66%
Second compound 10 µM, first compound 0.0316 µM
  viability, T/C: 60.1%
Second compound 10 µM, first compound 0.1 µM
  viability, T/C: 47.8%
Second compound 10 µM, first compound 0.316 µM
  viability, T/C: 59.5%
Second compound 10 µM, first compound 1 µM
  viability, T/C: 57%
Second compound 10 µM, first compound 3.16 µM
  viability, T/C: 51%
Second compound 10 µM, first compound 10 µM
  viability, T/C: 64.4%
